Data taken from US6440986B2, “HIV Inhibiting pyrimidine derivatives” (Janssen Pharmaceutica, N.V., priority 1998, dated 2002).
Counter-ions that a name gives are not always drawn. Like-named read-outs stand apart in the source and are kept apart here.

Legend:
HIV-1 = assay: in vitro anti-HIV assay: inhibition of the HIV-induced cytopathic effect in MT-4 cells (MTT); assay type: cell-based; conditions: dose achieving 50% protection of HIV-infected MT-4 cells against cytopathic effect, OD 540 nm
Experimental: (§1) A rapid, sensitive and automated assay procedure was used for the in vitro evaluation of anti-HIV agents. An HIV-1 transformed T4-cell line, MT-4, which was previously shown (Koyanagi et al., Int. J. Cancer, 36, 445-451, 1985) to be highly susceptible to and permissive for HIV infection, served as the target cell line. Inhibition of the HIV-induced cytopathic effect was used as the end point. The viability of both HIV- and mock-infected cells was assessed spectrophotometrically via the in situ reduction of 3-(4,5-dimethylthiazol-2-yl)-2,5-diphenyltetrazolium bromide (MTT). […] The percent protection achieved by the compound in HIV-infected cells was calculated by the following formula: [formula]
(§2) whereby (ODT)HIV is the optical density measured with a given concentration of the test compound in HIV-infected cells; (ODC)HIV is the optical density measured for the control untreated HIV-infected cells: (ODC)MOCK is the optical density measured for the control untreated mock-infected cells; all optical density values were determined at 540 nm. […] The ratio of CC50 to IC50 was defined as the selectivity index (SI).

[1] = system: MT-4 cells (mock-infected); assay: cytotoxicity in mock-infected MT-4 cells (MTT); assay type: cell-based
Experimental: as §1, with “An HIV-1 transformed T4-cell line, MT-4, which was previously shown (Koyanagi et al., Int. J. Cancer, 36, 445-451, 1985) to be highly susceptible to and permissive for HIV infection, served as the target cell line.” left out
as §2

[2] = 50% cytotoxic concentration, reduces absorbance of mock-infected MT-4 control by 50%, MTT, read-out: CC50

Compound: N#Cc1ccc(Nc2nc(Cc3c(Cl)cccc3Cl)cc(NCCCCO)n2)cc1 [Compound 1]
- IC50 (HIV-1): 27 nM
- CC50 [1]: 49700 nM

Compound: N#Cc1ccc(Nc2nc(Cc3c(Cl)cccc3Cl)cc(NCCO)n2)cc1 [Compound 2]
- IC50 (HIV-1): 35 nM
- CC50 [1]: > 100000 nM

Compound: N#Cc1ccc(Nc2nc(Cc3c(Cl)cccc3Cl)cc(NCC(O)c3ccccc3)n2)cc1 (stereo not shown) [Compound 4]
- IC50 (HIV-1): 315 nM
- CC50 [1]: > 100000 nM

Compound: N#Cc1ccc(Nc2nc(Cc3c(Cl)cccc3Cl)cc(NCCCN3CCCC3=O)n2)cc1 [Compound 5]
- CC50 [1]: 56200 nM

Compound: N#Cc1ccc(Nc2nc(Cc3c(Cl)cccc3Cl)cc(NCCOCCO)n2)cc1 [Compound 6]
- IC50 (HIV-1): 20 nM
- CC50 [1]: 24400 nM

Compound: CC(C)OCCCNc1cc(Cc2c(Cl)cccc2Cl)nc(Nc2ccc(C#N)cc2)n1 [Compound 7]
- IC50 (HIV-1): 975 nM
- CC50 [1]: > 100000 nM

Compound: COc1cccc(CCNc2cc(Cc3c(Cl)cccc3Cl)nc(Nc3ccc(C#N)cc3)n2)c1 [Compound 8]
- IC50 (HIV-1): 8150 nM
- CC50 [1]: > 100000 nM

Compound: N#Cc1ccc(Nc2nc(Cc3c(Cl)cccc3Cl)cc(NCC(O)CO)n2)cc1 (stereo not shown) [Compound 9]
- IC50 (HIV-1): 37 nM
- CC50 [1]: 58600 nM

Compound: COc1ccc(CCNc2cc(Cc3c(Cl)cccc3Cl)nc(Nc3ccc(C#N)cc3)n2)cc1 [Compound 10]
- IC50 (HIV-1): 2530 nM
- CC50 [1]: > 100000 nM

Compound: N#Cc1ccc(Nc2nc(Cc3c(Cl)cccc3Cl)cc(NCc3ccccc3)n2)cc1 [Compound 12]
- IC50 (HIV-1): 1680 nM
- CC50 [1]: 55100 nM

Compound: N#Cc1ccc(Nc2nc(Cc3c(Cl)cccc3Cl)cc(NCCc3cccs3)n2)cc1 [Compound 14]
- IC50 (HIV-1): 2180 nM
- CC50 [1]: 89000 nM

Compound: N#Cc1ccc(Nc2nc(Cc3c(Cl)cccc3Cl)cc(NO)n2)cc1 [Compound 15, 4-[[4-[(2,6-dichloro-phenyl)methyl]-6-(hydroxyamino)-2-pyrimidinyl]amino]benzonitrile dihydrobromide.pentahydrate]
- IC50 (HIV-1): 3 nM
- CC50 [1]: 9000 nM

Compound: N#Cc1ccc(Nc2nc(Cc3c(Cl)cccc3Cl)cc(NCCc3ccccn3)n2)cc1 [Compound 16]
- IC50 (HIV-1): 389 nM
- CC50 [1]: 41200 nM

Compound: CCCCCCCCCCCC(=O)Nc1cc(Cc2c(Cl)cccc2Cl)nc(Nc2ccc(C#N)cc2)n1 [Compound 18]
- IC50 (HIV-1): 2100 nM
- CC50 [1]: 59900 nM

Compound: N#CCCNc1cc(Cc2c(Cl)cccc2Cl)nc(Nc2ccc(C#N)cc2)n1 [Compound 19]
- IC50 (HIV-1): 6 nM
- CC50 [1]: 53600 nM

Compound: CCOC(=O)Nc1cc(Cc2c(Cl)cccc2Cl)nc(Nc2ccc(C#N)cc2)n1 [Compound 20]
- IC50 (HIV-1): 26 nM
- CC50 [1]: 36500 nM

Compound: CC(=O)Nc1cc(Cc2c(Cl)cccc2Cl)nc(Nc2ccc(C#N)cc2)n1 [Compound 21]
- IC50 (HIV-1): 17 nM
- CC50 [1]: 50600 nM

Compound: CCCC(=O)Nc1cc(Cc2c(Cl)cccc2Cl)nc(Nc2ccc(C#N)cc2)n1 [Compound 22]
- IC50 (HIV-1): 35 nM
- CC50 [1]: 12200 nM

Compound: N#Cc1ccc(Nc2nc(N)cc(Cc3c(Cl)cccc3Cl)n2)cc1 [Compound 23]
- IC50 (HIV-1): 1 nM
- CC50 [1]: 47900 nM

Compound: CNc1cc(Cc2c(Cl)cccc2Cl)nc(Nc2ccc(C#N)cc2)n1 [Compound 24]
- IC50 (HIV-1): 20 nM
- CC50 [1]: 54000 nM

Compound: Nc1cc(Cc2c(Cl)cccc2Cl)nc(Nc2ccc(Br)cc2)n1 [Compound 27]
- IC50 (HIV-1): 17 nM
- CC50 [1, 2]: > 20000 nM

Compound: Nc1nc(Cc2c(Cl)cccc2Cl)cc(Nc2ccc(Br)cc2)n1 [Compound 28]
- IC50 (HIV-1): 79 nM
- CC50 [1, 2]: > 20000 nM

Compound: Nc1cc(Cc2c(Cl)cccc2Cl)nc(Nc2ccc(Cl)cc2)n1 [Compound 29]
- IC50 (HIV-1): 15 nM
- CC50 [1, 2]: > 20000 nM

Compound: Nc1nc(Cc2c(Cl)cccc2Cl)cc(Nc2ccc(Cl)cc2)n1 [Compound 30]
- IC50 (HIV-1): 88 nM
- CC50 [1, 2]: > 20000 nM

Compound: Nc1nc(Cc2c(Cl)cccc2Cl)cc(Nc2ccc(Br)cn2)n1 [Compound 31]
- IC50 (HIV-1): 24 nM
- CC50 [1, 2]: 86800 nM

Compound: Nc1cc(Cc2c(Cl)cccc2Cl)nc(Nc2ccc(Br)cn2)n1 [Compound 32]
- IC50 (HIV-1): 403 nM
- CC50 [1, 2]: > 100000 nM

Compound: Nc1cc(Cc2c(Cl)cccc2Cl)nc(Nc2ccc(F)cc2)n1 [Compound 33]
- IC50 (HIV-1): 42 nM
- CC50 [1, 2]: 43400 nM

Compound: Nc1nc(Cc2c(Cl)cccc2Cl)cc(Nc2ccc(F)cc2)n1 [Compound 34]
- IC50 (HIV-1): 319 nM
- CC50 [1, 2]: 57800 nM

Compound: Cc1ccc(Nc2nc(N)cc(Cc3c(Cl)cccc3Cl)n2)cc1 [Compound 35]
- IC50 (HIV-1): 103 nM
- CC50 [1, 2]: 42300 nM

Compound: Cc1ccc(Nc2cc(Cc3c(Cl)cccc3Cl)nc(N)n2)cc1 [Compound 36]
- IC50 (HIV-1): 323 nM
- CC50 [1, 2]: > 100000 nM

Compound: Nc1cc(Cc2c(Cl)cccc2Cl)nc(Nc2ccccc2)n1 [Compound 37]
- IC50 (HIV-1): 443 nM
- CC50 [1, 2]: 33400 nM

Compound: Nc1nc(Cc2c(Cl)cccc2Cl)cc(Nc2ccccc2)n1 [Compound 38]
- IC50 (HIV-1): 2450 nM
- CC50 [1, 2]: 32400 nM

Compound: N#Cc1ccc(Nc2cc(Cc3c(Cl)cccc3Cl)nc(NCCO)n2)cc1 [Compound 40]
- IC50 (HIV-1): 253 nM
- CC50 [1, 2]: 40200 nM

Compound: CNc1nc(Cc2c(Cl)cccc2Cl)cc(Nc2ccc(C#N)cc2)n1 [Compound 41]
- IC50 (HIV-1): 1990 nM
- CC50 [1, 2]: 34200 nM

Compound: N#Cc1ccc(Nc2cc(Cc3c(Cl)cccc3Cl)nc(NCCCO)n2)cc1 [Compound 42]
- IC50 (HIV-1): 352 nM
- CC50 [1, 2]: 35500 nM

Compound: N#Cc1ccc(Nc2cc(Cc3c(Cl)cccc3Cl)nc(NCCCCO)n2)cc1 [Compound 43]
- IC50 (HIV-1): 603 nM
- CC50 [1, 2]: > 100000 nM

Compound: N#Cc1ccc(Nc2cc(Cc3c(Cl)cccc3Cl)nc(N)n2)cc1 [Compound 45]
- IC50 (HIV-1): 10 nM
- CC50 [1, 2]: 56300 nM

Compound: Cc1c(Cc2c(Cl)cccc2Cl)nc(N)nc1Nc1ccc(C#N)cc1 [Compound 46]
- IC50 (HIV-1): 45200 nM
- CC50 [1, 2]: > 100000 nM

Compound: Cc1c(Cc2c(Cl)cccc2Cl)nc(N)nc1Nc1ccc(Br)cc1 [Compound 48]
- IC50 (HIV-1): 44200 nM
- CC50 [1, 2]: > 100000 nM

Compound: Cc1c(N)nc(Nc2ccc(Br)cc2)nc1Cc1c(Cl)cccc1Cl [Compound 49]
- IC50 (HIV-1): 58 nM
- CC50 [1, 2]: 45200 nM

Compound: N#Cc1ccc(Nc2cc(Oc3c(Cl)cccc3Cl)nc(N)n2)cc1 [Compound 50]
- IC50 (HIV-1): 518 nM
- CC50 [1]: 52000 nM

Compound: N#Cc1ccc(Nc2cc(N)nc(Cc3c(Cl)cccc3Cl)n2)cc1 [Compound 51]
- IC50 (HIV-1): 452 nM
- CC50 [1]: > 100000 nM

Compound: Cc1cc(C)c(Nc2ccnc(Nc3ccc(C#N)cc3)n2)c(C)c1 [Compound 53, 4-[[4-[(2,4,6-trimethyl-phenyl)amino]-2-pyrimidinyl]amino]benzonitrile hydrochloride (1:1)]
- IC50 (HIV-1): 0.6 nM
- CC50 [1, 2]: 1300 nM

Compound: Cc1cc(Br)cc(C)c1Nc1ccnc(Nc2ccc(C#N)cc2)n1 [Compound 56]
- IC50 (HIV-1): 2.3 nM
- CC50 [1]: 1900 nM

Compound: Cc1cccc(C)c1Nc1ccnc(Nc2ccc(C#N)cc2)n1 [Compound 57]
- IC50 (HIV-1): 0.7 nM
- CC50 [1]: 800 nM

Compound: N#Cc1ccc(Nc2nccc(Sc3c(Cl)cccc3Cl)n2)cc1 [Compound 59]
- IC50 (HIV-1): 1.2 nM
- CC50 [1]: > 100000 nM

Compound: N#Cc1ccc(Nc2nccc(Oc3c(Cl)cc(Cl)cc3Cl)n2)cc1 [Compound 60]
- IC50 (HIV-1): 290 nM
- CC50 [1]: > 100000 nM

Compound: CC(C)c1cc(Br)c(Nc2ccnc(Nc3ccc(C#N)cc3)n2)c(Br)c1 [Compound 62]
- IC50 (HIV-1): 3.2 nM
- CC50 [1]: 8700 nM

Compound: Cc1cc(C)c(Nc2nc(Nc3ccc(C#N)cc3)ncc2C)c(C)c1 [Compound 63]
- IC50 (HIV-1): 1.7 nM
- CC50 [1]: 300 nM

Compound: Cc1cc(Cl)cc(Cl)c1Oc1ccnc(Nc2ccc(C#N)cc2)n1 [Compound 64]
- IC50 (HIV-1): 120 nM
- CC50 [1]: > 100000 nM

Compound: N#Cc1ccc(Nc2nccc(Nc3c(Cl)cccc3Cl)n2)cc1 [Compound 65]
- IC50 (HIV-1): 180 nM
- CC50 [1]: 200 nM

Compound: N#Cc1ccc(Nc2nccc(Nc3c(Cl)cc(F)cc3Br)n2)cc1 [Compound 67]
- IC50 (HIV-1): 2.4 nM
- CC50 [1]: 400 nM

Compound: Cc1cc(Cl)cc(Cl)c1Nc1ccnc(Nc2ccc(C#N)cc2)n1 [Compound 68]
- IC50 (HIV-1): 1 nM
- CC50 [1]: 1400 nM

Compound: Cc1cc(C#N)cc(C)c1Nc1ccnc(Nc2ccc(C#N)cc2)n1 [Compound 69, 4-[[2-[(cyanophenyl)amino]-4-pyrimidinyl]amino]-3,5-dimethylbenzonitrile]
- IC50 (HIV-1): 0.4 nM
- CC50 [1, 2]: 4700 nM

Compound: N#Cc1ccc(Nc2nccc(Nc3c(F)cc(Br)cc3Br)n2)cc1 [Compound 70]
- IC50 (HIV-1): 0.6 nM
- CC50 [1]: 5800 nM

Compound: Cc1cc(C)c(N(C)c2ccnc(Nc3ccc(C#N)cc3)n2)c(C)c1 [Compound 71]
- IC50 (HIV-1): 6.3 nM
- CC50 [1]: 45800 nM

Compound: N#Cc1ccc(Nc2nccc(Nc3c(Cl)cc(Cl)cc3Cl)n2)cc1 [Compound 72]
- IC50 (HIV-1): 0.7 nM
- CC50 [1]: 500 nM

Compound: Cc1cc(C)c(Sc2ccnc(Nc3ccc(C#N)cc3)n2)c(C)c1 [Compound 73]
- IC50 (HIV-1): 3.6 nM
- CC50 [1]: > 100000 nM

Compound: Cc1cc(Cl)cc(Br)c1Oc1ccnc(Nc2ccc(C#N)cc2)n1 [Compound 74]
- IC50 (HIV-1): 10 nM
- CC50 [1]: > 100000 nM

Compound: Cc1cc(Cl)cc(C)c1Nc1ccnc(Nc2ccc(C#N)cc2)n1 [Compound 75]
- IC50 (HIV-1): 2.1 nM
- CC50 [1]: 1900 nM

Compound: N#Cc1ccc(Nc2nccc(Nc3c(Cl)cc(C#N)cc3Cl)n2)cc1 [Compound 76]
- IC50 (HIV-1): 3.3 nM
- CC50 [1]: 5200 nM

Compound: N#Cc1ccc(Nc2nccc(Nc3c(Cl)cc(OC(F)(F)F)cc3Cl)n2)cc1 [Compound 77]
- IC50 (HIV-1): 3 nM
- CC50 [1]: 9600 nM

Compound: Cc1cnc(Nc2ccc(C#N)cc2)nc1Nc1c(C)cc(C#N)cc1C [Compound 83]
- IC50 (HIV-1): 0.8 nM
